Reference: patent publication US10065990B2, “Cyclic peptide compound, and preparation method, pharmaceutical composition and use thereof” (HANGZHOU GUANYU BIO-MEDICAL CO., LTD, priority 2013, dated 2018)
Like-named read-outs stand apart in the source and are kept apart here.

Key:
Test in all cases: HDAC biochemical activity measurement (fluorescent substrate deacetylation);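 on IC50 HDAC7: fluorogenic deacetylation assay using acetyl-lysine substrate at 20 µM, enzyme and compound incubated 30 min at 37 °C, then developer added, fluorescence read at 360/460 nm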
[1] = molecular target: T1, HDAC7 (Homo sapiens, UniProt Q8WUI4); details: HDAC7; 37° C. 30 minutes;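 further: fluorogenic deacetylation assay using acetyl-lysine substrate at 20 µM, enzyme and compound incubated 30 min at 37 °C, then developer added, fluorescence read at 360/460 nm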
T1 sequence (Q8WUI4 1-952): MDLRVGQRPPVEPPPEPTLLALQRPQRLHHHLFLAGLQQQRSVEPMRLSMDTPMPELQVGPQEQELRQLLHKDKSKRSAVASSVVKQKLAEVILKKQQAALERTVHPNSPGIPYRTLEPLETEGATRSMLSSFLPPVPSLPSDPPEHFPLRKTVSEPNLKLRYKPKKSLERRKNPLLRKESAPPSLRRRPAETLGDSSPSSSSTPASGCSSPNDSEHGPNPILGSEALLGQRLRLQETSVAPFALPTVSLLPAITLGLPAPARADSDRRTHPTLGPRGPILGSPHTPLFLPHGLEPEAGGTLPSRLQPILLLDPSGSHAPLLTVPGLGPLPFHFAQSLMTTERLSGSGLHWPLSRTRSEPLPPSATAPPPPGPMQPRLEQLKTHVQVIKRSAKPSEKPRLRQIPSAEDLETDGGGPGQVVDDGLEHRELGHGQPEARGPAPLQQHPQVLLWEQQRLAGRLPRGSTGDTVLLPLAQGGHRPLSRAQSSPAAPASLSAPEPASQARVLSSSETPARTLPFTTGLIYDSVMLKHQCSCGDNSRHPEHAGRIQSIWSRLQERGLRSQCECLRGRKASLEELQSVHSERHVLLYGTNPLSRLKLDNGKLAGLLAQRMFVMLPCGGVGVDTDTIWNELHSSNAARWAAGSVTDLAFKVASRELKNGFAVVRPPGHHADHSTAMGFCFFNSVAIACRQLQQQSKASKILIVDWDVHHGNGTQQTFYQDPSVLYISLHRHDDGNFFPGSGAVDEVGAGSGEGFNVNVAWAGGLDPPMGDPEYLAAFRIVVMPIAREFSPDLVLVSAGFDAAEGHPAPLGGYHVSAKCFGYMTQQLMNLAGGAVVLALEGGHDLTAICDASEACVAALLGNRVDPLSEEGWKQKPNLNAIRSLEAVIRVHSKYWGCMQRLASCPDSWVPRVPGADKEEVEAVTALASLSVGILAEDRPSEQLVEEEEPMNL

[2] = molecular target: T2, HDAC11 (Homo sapiens, UniProt Q96DB2);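 further: HDAC11 enzyme acting on an acetyl-lysine fluorogenic substrate, then a developer frees the fluorophore, read at excitation 360 nm and emission 460 nm, IC50 over a compound dilution series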
T2 sequence (Q96DB2 1-347): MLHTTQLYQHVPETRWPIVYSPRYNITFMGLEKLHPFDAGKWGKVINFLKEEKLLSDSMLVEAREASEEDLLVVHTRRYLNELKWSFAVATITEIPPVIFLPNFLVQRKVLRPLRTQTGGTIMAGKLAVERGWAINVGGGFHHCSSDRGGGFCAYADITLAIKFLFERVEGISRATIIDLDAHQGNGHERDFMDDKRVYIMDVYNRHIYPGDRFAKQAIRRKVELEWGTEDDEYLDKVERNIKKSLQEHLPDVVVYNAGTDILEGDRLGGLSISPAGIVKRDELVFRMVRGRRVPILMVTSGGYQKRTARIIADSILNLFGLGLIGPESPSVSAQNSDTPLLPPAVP

[3] = molecular target: T3, HDAC8 (Homo sapiens, UniProt Q9BY41); details: 37° C. 30 minutes
T3 sequence (Q9BY41 1-377): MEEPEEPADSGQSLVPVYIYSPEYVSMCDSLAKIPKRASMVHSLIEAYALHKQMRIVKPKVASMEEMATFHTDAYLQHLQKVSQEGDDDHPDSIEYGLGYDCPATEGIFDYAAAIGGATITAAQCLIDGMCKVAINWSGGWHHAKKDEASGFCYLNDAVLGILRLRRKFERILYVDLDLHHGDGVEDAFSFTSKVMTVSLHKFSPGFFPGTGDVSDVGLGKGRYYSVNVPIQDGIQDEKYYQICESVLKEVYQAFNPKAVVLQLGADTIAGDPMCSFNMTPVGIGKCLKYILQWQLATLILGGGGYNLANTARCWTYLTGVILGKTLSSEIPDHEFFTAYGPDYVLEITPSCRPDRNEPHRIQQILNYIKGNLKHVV
Experimental: The chemical activity of the compound is determined according to the degree of deacetylation inhibition of the HDAC enzyme. This experiment measured the degree of deacetylation related to tumor proliferation and metastasis of HDAC1, HDAC2, HDAC3, HDAC8, HDAC11 five subtypes HDAC enzymes. After the substrate containing an acetylated lysine side chain and HDAC enzyme are labeled with a fluorescent label, the fluorescent substrate is de acetyl. The fluorescent labeled substrate is cleaved by the enzyme, and the fluorescent substance is released, which generates 460 nm emission light under the excitation of 360 nm light.
HDAC substrate was diluted with reaction buffer to 200M (reaction concentration of 20M), the HDAC enzyme was diluted to the appropriate concentration, then added different concentrations of the test compounds and acted at 37° C. 30 minutes, and then added the same volume of 2-times concentration substrate developing solution (developer), incubated at room temperature for 15 minutes.

[4] = read-out: IC50 HDAC11, HDAC11, 37° C. 30 minutes

IC50 HDAC7 [1] | IC50 [2, 4] [nM] | IC50 [3] [nM] | IC50 [2] [nM] | Compound
no activity | 91 | 38 |  | C/C=C1\NC(=O)c2cccc(n2)CNC(=O)C[C@@H](/C=C/CCSC(C)=O)OC(=O)[C@H](C)NC1=O [Compound 12]
no activity |  | 36 | 99 | C/C=C1\NC(=O)c2cc(SC)cc(n2)CNC(=O)C[C@@H](/C=C/CCSC(C)=O)OC(=O)[C@H](CC)NC1=O [Compound 178]
no activity |  | 55 | 67 | C/C=C1\NC(=O)c2cccc(n2)CNC(=O)C[C@@H](/C=C/CCSC(=O)CCCCCCC)OC(=O)[C@H](CSCC)NC1=O [Compound 242]
no activity |  | 33 | 69 | C/C=C1\NC(=O)c2cccc(n2)CNC(=O)C[C@@H](/C=C/CCSC(=O)CCCCCCC)OC(=O)[C@H](CC(C)C)NC1=O [Compound 241]
no activity | 93 | 78 |  | C/C=C1\NC(=O)c2ncc(SC)c(n2)CNC(=O)C[C@@H](/C=C/CCSC(C)=O)OC(=O)[C@H](C(C)C)NC1=O [Compound 217]
no activity | 135 | 63 |  | C/C=C1\NC(=O)c2cccc(n2)CNC(=O)C[C@@H](/C=C/CCSC(=O)CC)OC(=O)[C@H](C(C)C)NC1=O [Compound 6]
no activity | 187 | 129 |  | C/C=C1\NC(=O)c2nc(ccc2C)CNC(=O)C[C@@H](/C=C/CCSC(=O)CCCCCCC)OC(=O)[C@H](C(C)C)NC1=O [Compound 243]
no activity | 279 | 752 |  | C/C=C1\NC(=O)c2cc(SC)cc(n2)CNC(=O)C[C@@H](/C=C/CCSC(C)=O)OC(=O)[C@H](C(C)C)NC1=O [Compound 224]
no activity | 126 | 102 |  | CCCCCCCC(=O)SCC/C=C/[C@@H]1CC(=O)NCc2cccc(n2)C(=O)NC(CC)C(=O)N[C@@H](C(C)C)C(=O)O1 (some centres unmarked) [Compound 245]
no activity | 97 | 34 |  | C/C=C1\NC(=O)c2cc(F)cc(n2)CNC(=O)C[C@@H](/C=C/CCSC(=O)CCCCCCC)OC(=O)[C@H](Cc2ccccc2)NC1=O [Compound 70]
no activity | 94 | 159 |  | C/C=C1\NC(=O)c2cccc(n2)CNC(=O)C[C@@H](/C=C/CCSC(C)=O)OC(=O)[C@H](Cc2ccccc2)NC1=O [Compound 13]
no activity | 97 | 51 |  | C/C=C1\NC(=O)c2cc(F)cc(n2)CNC(=O)C[C@@H](/C=C/CCSC(C)=O)OC(=O)[C@H](CC)NC1=O [Compound 58]
no activity | 28 | 89 |  | C/C=C1\NC(=O)c2cccc(n2)CNC(=O)C[C@@H](/C=C/CCSC(=O)CCCCCCC)OC(=O)[C@H](Cc2cccc3ccccc23)NC1=O [Compound 239]
no activity |  | 63 | 97 | C/C=C1\NC(=O)c2nccc(n2)CNC(=O)C[C@@H](/C=C/CCSC(C)=O)OC(=O)[C@H](C)NC1=O [Example 24]
no activity |  | 64 | 94 | C/C=C1\NC(=O)c2cccc(n2)CCNC(=O)C[C@@H](/C=C/CCSC(C)=O)OC(=O)[C@H](C(C)C)NC1=O [Example 26]
no activity | 94 | 26 |  | C/C=C1\NC(=O)c2nc(ccc2C)CNC(=O)C[C@@H](/C=C/CCSC(C)=O)OC(=O)[C@H](Cc2ccccc2)NC1=O [Compound 66]

IC50 HDAC7 [1] | IC50 [2, 4] [nM] | IC50 [3] [nM] | IC50 [2] [nM] | Compound
no activity |  | 37 | 79 | C/C=C1\NC(=O)c2ccc(F)c(n2)CNC(=O)C[C@@H](/C=C/CCSC(=O)CCCCCCC)OC(=O)[C@H](C)NC1=O [Example 62]
no activity | 106 | 43 |  | C/C=C1\NC(=O)c2cccc(n2)CNC(=O)C[C@@H](/C=C/CCSC(C)=O)OC(=O)[C@H](CCCCN)NC1=O [Compound 15]
no activity |  | 25 | 92 | C/C=C1\NC(=O)c2nc(ccc2F)CNC(=O)C[C@@H](/C=C/CCSC(=O)CC)OC(=O)[C@H](C(C)C)NC1=O [Example 45]
no activity | 101 | 49 |  | C/C=C1\NC(=O)c2cccc(n2)CNC(=O)C[C@@H](/C=C/CCSC(=O)CCCCCCC)OC(=O)[C@H](CC)NC1=O [Compound 9]
no activity | 235 | 132 |  | CCCCCCCC(=O)SCC/C=C/[C@@H]1CC(=O)NCc2cccc(n2)C(=O)NCC(=O)N[C@@H](C(C)C)C(=O)O1 [Compound 246]
no activity | 95 | 61 |  | C/C=C1\NC(=O)c2cccc(n2)CNC(=O)C[C@@H](/C=C/CCSC(C)=O)OC(=O)[C@H](CCCCNC(=O)OCC2c3ccccc3-c3ccccc32)NC1=O [Compound 16]
no activity |  | 18 | 85 | C/C=C1\NC(=O)c2ccc(SC)c(n2)CNC(=O)C[C@@H](/C=C/CCSC(=O)CCCCCCC)OC(=O)[C@H](Cc2ccccc2)NC1=O [Compound 191]
no activity |  | 41 | 103 | C/C=C1\NC(=O)c2nc(ccc2F)CNC(=O)C[C@@H](/C=C/CCSC=O)OC(=O)[C@H](C(C)C)NC1=O [Example 51]
no activity | 37 | 89 |  | C=C1NC(=O)c2cccc(n2)CNC(=O)C[C@@H](/C=C/CCSC(=O)CCCCCCC)OC(=O)[C@H](C(C)C)NC1=O [Compound 244]
no activity | 107 | 53 |  | C/C=C1\NC(=O)c2cc(F)cc(n2)CNC(=O)C[C@@H](/C=C/CCSC=O)OC(=O)[C@H](C(C)C)NC1=O [Compound 52]
no activity |  | 435 | 672 | C/C=C1\NC(=O)c2ccc(F)c(n2)CNC(=O)C[C@@H](/C=C/CCSC(C)=O)OC(=O)[C@H](CCCCN)NC1=O [Example 74]
no activity |  | 41 | 96 | C/C=C1\NC(=O)c2ccc(F)c(n2)CNC(=O)C[C@@H](/C=C/CCSC(=O)CCCCCCC)OC(=O)[C@H](Cc2ccccc2)NC1=O [Example 71]
no activity |  | 47 | 97 | C/C=C1\NC(=O)c2cccc(n2)NC(=O)C[C@@H](/C=C/CCSC(C)=O)OC(=O)[C@H](C(C)C)NC1=O [Example 22]
no activity |  | 15 | 92 | C/C=C1\NC(=O)c2cc(SC)cc(n2)CNC(=O)C[C@@H](/C=C/CCSC=O)OC(=O)[C@H](C(C)C)NC1=O [Compound 169]
no activity |  | 28 | 86 | C/C=C1\NC(=O)c2nc(ccc2SC)CNC(=O)C[C@@H](/C=C/CCSC(=O)CCCCCCC)OC(=O)[C@H](C(C)C)NC1=O [Compound 147]
no activity |  |  | 83 | C/C=C1\NC(=O)c2ccc(F)c(n2)CNC(=O)C[C@@H](/C=C/CCSC(=O)CC)OC(=O)[C@H](C(C)C)NC1=O [Example 47]
